Results from US11111247B2, “Pyrazolopyrimidine compounds and uses thereof” (Incyte Corporation, priority 2018, dated 2021).
pIC50: −log10 of the molar value. Where two headings read alike, the source gives them in different places.

Experiments:
FGFR2 (P) = FGFR2 (P) (Homo sapiens (Human), UniProt P21802); test: FGFR Enzymatic Assay, FGFR2 phosphorylated; settings: phosphorylated enzyme, ATP near or below Km; for pIC50: read-out: FGFR2 (P) IC50; for IC50: FGFR2 (P) IC50 (nM)
Experimental: The inhibitor potency of the exemplified compounds was determined in an enzyme discontinuous assay that measures peptide phosphorylation using FRET measurements to detect product formation. Inhibitors were serially diluted in DMSO and a volume of 0.2 μL was transferred to the wells of a 384-well plate. For the isoforms of FGFR (−1, −2, −3 wild-type and mutant isoforms, −4) including phosphorylated (P) and un-phosphorylated (UP) proteins, a 5 μL/well volume of enzyme diluted in assay buffer (50 mM HEPES, 10 mM MgCl2, 1 mM EGTA, 0.01% Tween-20, 5 mM DTT, pH 7.5) was added to the plate and pre-incubated with inhibitor for 5 to 15 minutes at ambient temperature. Appropriate controls (enzyme blank and enzyme with no inhibitor) were included on the plate. The reaction was initiated by the addition of a 5 μL/well volume containing both biotinylated [sequence] […] The plate was allowed to equilibrate for −10 minutes at ambient temperature before scanning on a PheraStar plate reader (BMG Labtech) instrument.
Either GraphPad prism or XLfit was used to analyze the data. The IC50 values were derived by fitting the data to a four parameter logistic equation producing a sigmoidal dose-response curve with a variable Hill coefficient. Prism equation: Y=Bottom+(Top−Bottom)/(1+10^((LogIC50−X)*Hill slope)); XLfit equation: Y=(A+((B−A)/(1+((X/C)^D)))) where X is the logarithm of inhibitor concentration and Y is the response.

RT112 cells = test: Luminescent Viability Assay (LVA, FGFR3); format: cell-based; settings: Homo sapiens, RT-112, 72 h, 3 days, CellTiter-Glo
Experimental: RT112 cells were purchased from ATCC (Manassas, Va.) and maintained in RPMI, 10% FBS (Gibco/Life Technologies). To measure the effect of test compounds on the viability of cells, the cells were plated with RPMI 10% FBS (5×10^3 cells/well/in 50 μL) into black 96-well Greiner polystyrene in the presence or absence of 50 μl of a concentration range of test compounds. After 3 days, 100 μl of CellTiter-Glo Reagent (Promega) was added. Luminescence was read with a TopCount (PerkinElmer). IC50 determination was performed by fitting the curve of percent inhibition versus the log of the inhibitor concentration using the GraphPad Prism 5.0 software.

ALK2 (aa 147-end) = ALK2 (aa 147-end) (Homo sapiens (Human), UniProt Q04771); test: ALK2 HTRF Assay; format: biochemical
ALK2 (aa 147-end), sequence (Q04771 147-509): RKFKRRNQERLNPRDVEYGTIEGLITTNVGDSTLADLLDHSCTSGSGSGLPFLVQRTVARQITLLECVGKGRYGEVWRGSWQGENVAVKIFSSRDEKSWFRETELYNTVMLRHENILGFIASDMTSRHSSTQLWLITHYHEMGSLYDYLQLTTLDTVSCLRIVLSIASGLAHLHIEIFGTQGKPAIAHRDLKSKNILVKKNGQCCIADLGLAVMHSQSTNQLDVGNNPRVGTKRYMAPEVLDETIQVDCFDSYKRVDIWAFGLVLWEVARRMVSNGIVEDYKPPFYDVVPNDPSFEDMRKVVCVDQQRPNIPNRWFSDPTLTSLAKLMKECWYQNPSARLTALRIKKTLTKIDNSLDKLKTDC
Experimental: The enzymatic assays were conducted in white 384-well polystyrene plates in a final volume of 8 μL. The inhibitors were serially diluted in DMSO and added to the plate wells prior to addition of the other reaction components. The assays were carried out at 25° C. in the assay buffer (50 mM HEPES, pH 7.1, 10% Glycerol, 0.01% Brij50, 10 mM MgCl2, 1 mM EGTA, 5 mM DTT, and 0.01% BSA), containing 50 nM LANCE Ultra ULight™-DNA Topoisomerase 2-alpha peptide (Perkin Elmer TRF0130), and 3 uM, 100 uM or 1 mM ATP (as specified). […] The reaction was read on a PHERAstar FS plate reader (BMG Labtech). IC50 determination was performed by fitting percent control activity versus the log of the inhibitor concentration using the IDBS XLFit and GraphPad Prism 5.0 software.

FGFR3 (UP) = FGFR3 (UP) (Homo sapiens (Human), UniProt P22607); test: FGFR Enzymatic Assay, FGFR3 un-phosphorylated; settings: read-out: FGFR3 (UP) IC50; un-phosphorylated enzyme, ATP near or below Km
FGFR3 (UP), sequence (P22607 23-806): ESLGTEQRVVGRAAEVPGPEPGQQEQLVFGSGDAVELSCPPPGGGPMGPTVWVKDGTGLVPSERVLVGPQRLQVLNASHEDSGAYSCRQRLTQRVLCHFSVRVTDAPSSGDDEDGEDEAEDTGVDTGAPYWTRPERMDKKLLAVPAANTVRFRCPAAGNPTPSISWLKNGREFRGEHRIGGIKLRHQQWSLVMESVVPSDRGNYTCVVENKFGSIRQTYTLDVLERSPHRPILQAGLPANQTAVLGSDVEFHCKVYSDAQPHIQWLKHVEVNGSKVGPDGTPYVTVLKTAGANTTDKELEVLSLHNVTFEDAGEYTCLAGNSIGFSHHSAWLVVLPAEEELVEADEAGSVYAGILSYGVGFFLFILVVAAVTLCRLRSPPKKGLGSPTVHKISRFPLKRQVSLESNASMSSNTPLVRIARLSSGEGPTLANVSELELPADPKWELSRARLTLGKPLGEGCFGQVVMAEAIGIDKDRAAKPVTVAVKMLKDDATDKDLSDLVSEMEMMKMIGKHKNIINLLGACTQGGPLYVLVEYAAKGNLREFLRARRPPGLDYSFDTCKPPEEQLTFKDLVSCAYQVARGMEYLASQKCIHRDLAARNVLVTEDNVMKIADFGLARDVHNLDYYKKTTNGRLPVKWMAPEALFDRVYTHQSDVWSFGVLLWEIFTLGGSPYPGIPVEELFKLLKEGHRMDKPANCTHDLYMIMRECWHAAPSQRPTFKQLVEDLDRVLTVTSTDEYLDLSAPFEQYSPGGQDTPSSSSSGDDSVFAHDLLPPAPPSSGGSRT

FGFR1 (UP) = FGFR1 (UP) (Homo sapiens (Human), UniProt P11362); test: FGFR Enzymatic Assay, FGFR1 un-phosphorylated
FGFR1 (UP), sequence (P11362 22-822): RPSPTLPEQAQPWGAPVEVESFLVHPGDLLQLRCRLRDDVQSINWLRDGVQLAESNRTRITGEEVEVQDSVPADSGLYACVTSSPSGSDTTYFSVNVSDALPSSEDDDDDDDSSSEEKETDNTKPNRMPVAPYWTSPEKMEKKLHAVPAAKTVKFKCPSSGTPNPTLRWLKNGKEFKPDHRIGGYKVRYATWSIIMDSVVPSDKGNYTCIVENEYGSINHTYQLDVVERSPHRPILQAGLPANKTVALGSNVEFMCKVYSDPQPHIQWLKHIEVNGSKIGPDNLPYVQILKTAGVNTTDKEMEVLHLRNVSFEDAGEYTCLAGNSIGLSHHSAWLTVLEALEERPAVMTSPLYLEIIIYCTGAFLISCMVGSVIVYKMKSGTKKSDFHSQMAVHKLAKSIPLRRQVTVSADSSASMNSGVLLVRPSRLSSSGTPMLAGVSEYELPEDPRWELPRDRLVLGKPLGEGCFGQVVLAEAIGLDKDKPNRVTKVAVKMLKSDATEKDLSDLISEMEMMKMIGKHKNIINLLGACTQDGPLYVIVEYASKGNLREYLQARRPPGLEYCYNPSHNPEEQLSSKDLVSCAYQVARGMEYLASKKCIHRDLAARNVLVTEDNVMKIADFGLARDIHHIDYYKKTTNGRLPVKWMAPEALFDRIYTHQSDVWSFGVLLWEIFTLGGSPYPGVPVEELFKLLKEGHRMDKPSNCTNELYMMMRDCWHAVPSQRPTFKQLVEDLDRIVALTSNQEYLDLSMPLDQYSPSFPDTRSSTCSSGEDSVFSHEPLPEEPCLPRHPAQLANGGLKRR

[1] = read-out: FGFR1 (UP) IC50, un-phosphorylated enzyme, ATP near or below Km

FGFR2 (P), sequence (P21802 22-821): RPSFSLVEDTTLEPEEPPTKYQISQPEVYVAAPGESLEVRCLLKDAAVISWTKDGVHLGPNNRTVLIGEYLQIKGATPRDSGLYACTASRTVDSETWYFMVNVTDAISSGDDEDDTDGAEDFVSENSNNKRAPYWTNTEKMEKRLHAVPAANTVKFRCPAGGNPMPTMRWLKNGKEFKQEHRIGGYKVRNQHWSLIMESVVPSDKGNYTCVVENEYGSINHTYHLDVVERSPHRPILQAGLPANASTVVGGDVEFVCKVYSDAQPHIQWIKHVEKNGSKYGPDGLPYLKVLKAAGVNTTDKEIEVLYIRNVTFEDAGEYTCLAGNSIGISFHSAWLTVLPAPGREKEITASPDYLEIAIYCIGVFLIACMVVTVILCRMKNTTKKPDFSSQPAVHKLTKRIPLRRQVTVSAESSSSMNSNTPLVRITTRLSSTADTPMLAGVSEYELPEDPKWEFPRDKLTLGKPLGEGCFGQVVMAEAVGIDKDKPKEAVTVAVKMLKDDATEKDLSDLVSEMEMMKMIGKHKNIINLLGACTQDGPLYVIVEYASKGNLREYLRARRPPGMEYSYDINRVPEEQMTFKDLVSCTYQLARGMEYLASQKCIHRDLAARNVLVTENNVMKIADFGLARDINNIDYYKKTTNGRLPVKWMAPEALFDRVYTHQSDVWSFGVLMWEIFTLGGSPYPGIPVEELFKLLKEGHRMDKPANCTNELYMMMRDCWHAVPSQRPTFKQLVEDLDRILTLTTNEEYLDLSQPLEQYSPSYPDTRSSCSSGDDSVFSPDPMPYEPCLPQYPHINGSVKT

IC50 (FGFR2 (P)) [nM]	Compound	pIC50 (FGFR2 (P))	pIC50 (RT112 cells)	pIC50 (ALK2 (aa 147-end); ALK2 100 μM IC50, 100 uM ATP)	pIC50 (ALK2 (aa 147-end); read-out: ALK2 3 μM IC50, 3 uM ATP)	pIC50 (FGFR3 (UP))	pIC50 (FGFR1 (UP); [1])	pIC50 (FGFR1 (UP))	pIC50 (ALK2 (aa 147-end); ALK2 3 μM IC50, 3 uM ATP)
	CN1CCN(c2ccc(-c3n[nH]c4cnc(N5C6CCC5C(=O)N(C)C6)nc34)cn2)CC1 (stereo not shown) [Example 60, 3-Methyl-8-(3-(6-(4-methylpiperazin-1-yl)pyridin-3-yl)-1H-pyrazolo[4,3-d]pyrimidin-5-yl)-3,8-diazabicyclo[3.2.1]octan-2-one]	> 7.00	6.30 to 7.00	5.70 to 6.30	> 7.00	> 7.00	> 7.00		
	CN1CC2CCC(C1=O)N2c1ncc2[nH]nc(-c3cnn(-c4cccnc4)c3)c2n1 (stereo not shown) [Example 69, 3-Methyl-8-(3-(1-(pyridin-3-yl)-1H-pyrazol-4-yl)-1H-pyrazolo[4,3-d]pyrimidin-5-yl)-3,8-diazabicyclo[3.2.1]octan-2-one]	> 7.00	6.30 to 7.00			> 7.00	> 7.00		
100 to 500	Cn1cc(-c2n[nH]c3cnc(N4CCc5ncsc5C4)nc23)cn1 [Example 42, 5-(3-(1-Methyl-1H-pyrazol-4-yl)-1H-pyrazolo[4,3-d]pyrimidin-5-yl)-4,5,6,7-tetrahydrothiazolo[5,4-c]pyridine]		6.30 to 7.00			> 7.00		5.70 to 6.30	
	CC(C)C(=O)N1CCC(n2cc(-c3n[nH]c4cnc(N5C6CCC5C(=O)N(C)C6)nc34)cn2)CC1 (stereo not shown) [Example 57, 8-(3-(1-(1-Isobutyrylpiperidin-4-yl)-1H-pyrazol-4-yl)-1H-pyrazolo[4,3-d]pyrimidin-5-yl)-3-methyl-3,8-diazabicyclo[3.2.1]octan-2-one]	> 7.00	5.70 to 6.30	5.70 to 6.30		> 7.00		6.30 to 7.00	5.70 to 6.30
100 to 500	Cn1cc(-c2n[nH]c3cnc(N4CCn5cnc(C(F)(F)F)c5C4)nc23)cn1 [Example 41, 3-(1-Methyl-1H-pyrazol-4-yl)-5-(1-(trifluoromethyl)-5,6-dihydroimidazo[1,5-a]pyrazin-7(8H)-yl)-1H-pyrazolo[4,3-d]pyrimidine]		6.30 to 7.00	5.70 to 6.30		> 7.00		6.30 to 7.00	5.70 to 6.30
	CCC1C(=O)N(C)CCN1c1ncc2[nH]nc(-c3cnn(C)c3)c2n1 (stereo not shown) [Example 39, 3-Ethyl-1-methyl-4-(3-(1-methyl-1H-pyrazol-4-yl)-1H-pyrazolo[4,3-d]pyrimidin-5-yl)piperazin-2-one]	> 7.00	6.30 to 7.00			> 7.00		6.30 to 7.00	
	CN(C)C(=O)N1CCC(n2cc(-c3n[nH]c4cnc(N5C6CCC5C(=O)N(C)C6)nc34)cn2)CC1 (stereo not shown) [Example 56, N,N-Dimethyl-4-(4-(5-(3-methyl-2-oxo-3,8-diazabicyclo[3.2.1]octan-8-yl)-1H-pyrazolo[4,3-d]pyrimidin-3-yl)-1H-pyrazol-1-yl)piperidine-1-carboxamide]	> 7.00	5.70 to 6.30			> 7.00		6.30 to 7.00	
	CN1CC2CCC(C1=O)N2c1ncc2[nH]nc(-c3cnn(-c4ccc(C#N)nc4)c3)c2n1 (stereo not shown) [Example 74, 5-(4-(5-(3-Methyl-2-oxo-3,8-diazabicyclo[3.2.1]octan-8-yl)-1H-pyrazolo[4,3-d]pyrimidin-3-yl)-1H-pyrazol-1-yl)picolinonitrile]	> 7.00	6.30 to 7.00			> 7.00	> 7.00		
	CN1CC2CCC(C1=O)N2c1ncc2[nH]nc(-c3cnn(-c4ccc(C#N)c(F)c4)c3)c2n1 (stereo not shown) [Example 78, 2-Fluoro-4-(4-(5-(3-methyl-2-oxo-3,8-diazabicyclo[3.2.1]octan-8-yl)-1H-pyrazolo[4,3-d]pyrimidin-3-yl)-1H-pyrazol-1-yl)benzonitrile]	> 7.00	6.30 to 7.00			> 7.00		6.30 to 7.00	

Compound	IC50 (FGFR2 (P)) [nM]	pIC50 (FGFR2 (P))	pIC50 (RT112 cells)	pIC50 (ALK2 (aa 147-end); ALK2 100 μM IC50, 100 uM ATP)	pIC50 (ALK2 (aa 147-end); read-out: ALK2 3 μM IC50, 3 uM ATP)	pIC50 (FGFR3 (UP))	pIC50 (FGFR1 (UP); [1])	pIC50 (FGFR1 (UP))	pIC50 (ALK2 (aa 147-end); ALK2 3 μM IC50, 3 uM ATP)
Cc1cc(C#N)ccc1-n1cc(-c2n[nH]c3cnc(N4C5CCC4C(=O)N(C)C5)nc23)cn1 (stereo not shown) [Example 77, 3-Methyl-4-(4-(5-(3-methyl-2-oxo-3,8-diazabicyclo[3.2.1]octan-8-yl)-1H-pyrazolo[4,3-d]pyrimidin-3-yl)-1H-pyrazol-1-yl)benzonitrile]	100 to 500		5.70 to 6.30			> 7.00		5.70 to 6.30	
